From patent US9371365B2, “Modified compstatin with peptide backbone and C-terminal modifications” (The Trustees of the University of Pennsylvania, priority 2009, dated 2016)
Read-outs that look alike come from different tables or passages of the source.

What was measured:
[1] = molecular target: T1, C3b (Homo sapiens, UniProt P01024); assay: SPR analysis of binding kinetics to immobilized C3b; conditions: SPR, Table 2-1
T1 construct: biotin (chemical biotinylation of C3b)
Protocol: (§1) The kinetics of the interaction between C3b and each compstatin analog was analyzed by SPR on a Biacore 3000 instrument (GE Healthcare Corp., Piscataway, N.J.) at 25° C. using PBS-T (10 mM sodium phosphate, 150 mM NaCl, 0.005% Tween-20, pH 7.4) as the running buffer, as described above. In brief, biotinylated C3b (30 μg/mL) was immobilized on a streptavidin-coated sensor chip, and a two-fold serial dilution series (1 μM-500 pM) of each analog was injected for 2 min at 30 μl/min, with a dissociation phase of 5-10 min. Peptide [Trp(Me)^4]-Ac-compstatin was included in each experimental series as an internal control and reference. Data analysis was performed using Scrubber (BioLogic Software, Campbell, Australia). The signals from an untreated flow cell and an ensemble of buffer blank injections were subtracted to correct for buffer effects and injection artifacts. Processed biosensor data were globally fitted to a 1:1 Langmuir binding model, and the equilibrium dissociation constant (KD) was calculated from the equation KD=kd/ka. Peptide solutions were injected in duplicate in every experiment, and each screening assay was performed at least twice.
as §1, with “in Example 1.” for “above.”, “μg/ml)” for “μg/mL)”, “Peptide [Trp(Me)^4]-Ac-compstatin was included in each experimental series as an internal control and reference.” left out

[2] = In vivo retention: plasma half-life in baboons by LC-MS/MS; design: species or system baboon (P. Anubis); conditions: for half-life: baboon (P. Anubis)
Protocol: A 96-well plate HLB Oasis 10 mg (Waters, Milford, Mass.) was employed for extraction. The SPE material was conditioned by addition of 500 μl of methanol followed by addition of 500 μL of milli-Q water. Sample was prepared by addition of the internal standard followed by 1:1 dilution with 4% H3PO4. After loading the sample, washing was carried out with 500 μL of 5% methanol in 0.1% formic acid. Sample was eluted with 150 μL of 65% methanol in 0.1% formic acid and collected in the collection plate. Solvent was evaporated to dryness in a speed-vac concentrator and reconstituted in 5% acetonitrile in 0.1% formic acid. Samples were kept at −20° C. until analysis.
Baboon plasma samples, 40 μL, were mixed with internal standard and dissolved 1:1 with 40 mM ammonium carbonate buffer. Rapigest detergent was added to a final concentration of 0.1%. Disulfide bridges were reduced in 5 mM DTT for 30 min at 60° C. Alkylation of cysteines was done by addition of iodoacetamide to a final concentration of 15 mM and incubation for 30 min in dark. The sample was enzymatically digested by addition of 16 μL of a 1 μG/μL trypsin solution and incubation overnight at 37° C. After that, the sample pH was lowered with 5% TFA to induce detergent degradation. To avoid nonspecific adsorption of very hydrophobic peptides, acetonitrile was added to 20%. The samples were centrifuged at 6° C. and 14000 rpm for 30 min and the supernatant was diluted with 0.1% formic acid to reduce acetonitrile concentration to 10% prior to filtration with a 10 kDa cut-off microcon centrifugal filter (Millipore, Billerica, Mass.). The filter was washed with 50 μL of 10% ACN in 0.1% formic acid and the collected sample was evaporated to dryness and reconstituted with 10% ACN in 0.1% formic acid.
LC-MS/MS analysis was performed on a SYNAPT HDMS (Waters, Milford, Mass.) controlled by MassLynx 4.1 software (Waters) and equipped with a nanoESI source. Each sample was injected in triplicate. A nanoACQUITY UPLC (Waters) system was used for peptide separation by reversed-phase liquid chromatography. After injection, analytes were trapped for 3 min with 3% mobile phase A (0.1% formic acid in water) at 5 μl/min on a 5 μm Symmetry C18 column (180 μm×20 mm, Waters) and further separated on a 1.7 μm BEH130 C18 column (75 μm×150 mm, Waters). The analytical column temperature was held at 35° C. Peptides were separated at flow rate 0.3 μl/min. The gradient was linear 3-40% B (0.1% formic acid in acetonitrile), either 50 min long, or 60 min for the digested samples. The capillary voltage was 3.2 kV, the cone voltage was 35 V and the source temperature was 100° C. [Glu1]-fibrinogen peptide was used for lock-mass correction with a sampling rate of 30 s. Mass spectra were acquired in positive mode over an m/z range 400-2000 Da at scan rate 0.6 s. The time window used for the MS/MS function was ±3 min of the retention time of the selected peptide. The presence of the analyte was confirmed by MS/MS. Selectivity was studied by analysis of blank samples to determine the presence of any interference coeluting with the analyte.
Juvenile baboons (P. Anubis, Baboon Research Resources, University of Oklahoma) weighing 5-8 kg were used. Three baboons were used for the study; one for each compound. All animals received a bolus dose of peptides (10 mg) by injection through the peripheral vein. […]

[3] = system: classical pathway of complement; conditions: data from Sahu et al., 1996; cited from earlier work
[4] = system: classical pathway of complement; assay: Inhibition of classical pathway complement activation, ELISA in human serum; type: biochemical; conditions: relative to peptide 1; NA: not active
Protocol: The ability of the compstatin analogs to inhibit the activation of the classical pathway of complement was assessed by ELISA (Mallik et al., 2005, J Med Chem 48:274-86). In brief, complement was activated in human serum using an antigen-antibody complex in the presence or absence of compstatin analogs, and the deposition of C3 fragments on the plate surface was detected using an HRP-conjugated polyclonal anti-C3 antibody. […] The percent inhibition was plotted against the peptide concentration, and the resulting data set was fitted to the logistic dose-response function using Origin 7.0 software. IC50 values were obtained from the fitted parameters that produced the lowest χ^2 value. Each analog was assayed at least three to seven times.
The ability of the compstatin analogs to inhibit the activation of the classical pathway of complement was assessed by ELISA as described in Example 1. Each conjugate was assayed at least three times.

T1 sequence (P01024 23-667 limits assumed): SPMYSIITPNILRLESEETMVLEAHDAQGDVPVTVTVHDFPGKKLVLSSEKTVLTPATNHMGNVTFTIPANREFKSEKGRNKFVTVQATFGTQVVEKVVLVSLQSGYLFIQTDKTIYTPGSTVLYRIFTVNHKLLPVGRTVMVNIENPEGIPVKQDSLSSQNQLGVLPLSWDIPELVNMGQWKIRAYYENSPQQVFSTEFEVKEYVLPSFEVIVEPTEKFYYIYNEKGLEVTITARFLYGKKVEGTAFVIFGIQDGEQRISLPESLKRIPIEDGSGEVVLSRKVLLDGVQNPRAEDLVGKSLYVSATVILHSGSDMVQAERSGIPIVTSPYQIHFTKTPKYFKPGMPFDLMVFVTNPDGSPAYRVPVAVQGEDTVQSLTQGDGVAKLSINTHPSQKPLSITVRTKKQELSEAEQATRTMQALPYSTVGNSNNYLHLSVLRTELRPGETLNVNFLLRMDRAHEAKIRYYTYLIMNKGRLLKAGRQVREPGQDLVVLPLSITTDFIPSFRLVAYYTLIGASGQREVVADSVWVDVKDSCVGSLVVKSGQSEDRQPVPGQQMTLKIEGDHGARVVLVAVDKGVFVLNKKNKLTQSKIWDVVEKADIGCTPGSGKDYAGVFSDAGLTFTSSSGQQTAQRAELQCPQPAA
T1 sequence (P01024 749-1663 limits assumed): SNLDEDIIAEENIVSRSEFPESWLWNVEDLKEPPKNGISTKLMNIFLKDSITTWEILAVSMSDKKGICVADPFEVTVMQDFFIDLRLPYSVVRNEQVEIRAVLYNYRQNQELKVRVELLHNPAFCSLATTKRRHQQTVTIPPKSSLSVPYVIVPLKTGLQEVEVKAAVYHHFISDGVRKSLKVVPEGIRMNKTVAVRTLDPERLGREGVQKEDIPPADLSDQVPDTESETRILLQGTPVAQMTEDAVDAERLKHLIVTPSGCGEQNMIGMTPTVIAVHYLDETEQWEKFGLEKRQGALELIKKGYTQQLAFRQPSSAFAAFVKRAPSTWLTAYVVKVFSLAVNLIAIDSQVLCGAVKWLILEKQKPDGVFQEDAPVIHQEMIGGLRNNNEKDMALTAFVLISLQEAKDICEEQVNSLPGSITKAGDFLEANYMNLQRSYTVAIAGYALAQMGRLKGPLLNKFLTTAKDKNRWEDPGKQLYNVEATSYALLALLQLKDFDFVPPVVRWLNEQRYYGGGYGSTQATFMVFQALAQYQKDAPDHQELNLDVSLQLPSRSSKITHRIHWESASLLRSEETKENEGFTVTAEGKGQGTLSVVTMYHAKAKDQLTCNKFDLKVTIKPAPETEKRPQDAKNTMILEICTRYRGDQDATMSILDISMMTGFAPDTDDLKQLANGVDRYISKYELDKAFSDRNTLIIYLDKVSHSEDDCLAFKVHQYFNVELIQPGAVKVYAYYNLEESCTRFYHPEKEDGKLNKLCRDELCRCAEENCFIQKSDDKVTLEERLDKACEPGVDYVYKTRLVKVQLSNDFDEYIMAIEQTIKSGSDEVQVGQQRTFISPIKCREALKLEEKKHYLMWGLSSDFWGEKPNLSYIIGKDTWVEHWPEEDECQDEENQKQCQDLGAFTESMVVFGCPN

Compound	Kd [1] [nM]	Koff [1]	Kon [1]	half-life ([2]; in vivo, iv, 10 mg) [h]	fold improvement of half-life ([2]; in vivo) [fold]	half-life ([2]; in vivo, baboon, intravenous bolus 10 mg, read-out: plasma half-life (converted)) [h]	fold improvement of half-life ([2]; relative to unconjugated peptide 17, baboon) [fold]	IC50 [3] [nM]	IC50-fold change [4]
CC[C@H](C)[C@H](NC(C)=O)C(=O)N[C@H]1CSSC[C@@H](C(=O)N[C@H](C(=O)NCCOCCOCCOCC(=O)NCCOCCOCCOCC(=O)N[C@@H](CCCCNC(=O)CCNS(=O)(=O)c2ccc3ccccc3c2)C(N)=O)[C@@H](C)CC)NC(=O)[C@H](CCCNC(=N)N)NC(=O)[C@H](Cc2c[nH]cn2)NC(=O)[C@H](C)NC(=O)CN(C)C(=O)[C@H](Cc2c[nH]c3ccccc23)NC(=O)[C@H](CC(=O)O)NC(=O)[C@H](CCC(N)=O)NC(=O)[C@H](Cc2cn(C)c3ccccc23)NC(=O)[C@H](C(C)C)NC1=O [Peptide 17-ABM]	4.7	5.6 10^−3, s^−1	1.2 10^6, M^−1 · s^−1	5	5				
CC[C@H](C)[C@H](NC(C)=O)C(=O)N[C@H]1CSSC[C@@H](C(=O)N[C@H](C(=O)NCCOCCOCCOCC(=O)NCCOCCOCCOCC(=O)N[C@@H](CCCCNC(=O)Cn2cc(C(=O)N[C@@H](CCCNC(=N)N)C(=O)N[C@@H](CC(C)C)C(=O)N[C@H](C(=O)N[C@@H](CCC(=O)O)C(=O)N[C@@H](CC(=O)O)C(=O)N[C@H](C(=O)N[C@H]3CSSC[C@@H](C(=O)N[C@@H](CC(C)C)C(=O)N[C@@H](Cc4c[nH]c5ccccc45)C(=O)N[C@@H](CCC(=O)O)C(=O)N[C@@H](CC(=O)O)C(=O)N[C@@H](CC(=O)O)C(N)=O)NC(=O)CNC(=O)[C@H](Cc4c[nH]c5ccccc45)NC(=O)[C@H](CCCNC(=N)N)NC(=O)[C@@H]4CCCN4C(=O)[C@H](CC(C)C)NC3=O)[C@@H](C)CC)[C@@H](C)CC)nn2)C(N)=O)[C@@H](C)CC)NC(=O)[C@H](CCCNC(=N)N)NC(=O)[C@H](Cc2c[nH]cn2)NC(=O)[C@H](C)NC(=O)CN(C)C(=O)[C@H](Cc2c[nH]c3ccccc23)NC(=O)[C@H](CC(=O)O)NC(=O)[C@H](CCC(N)=O)NC(=O)[C@H](Cc2cn(C)c3ccccc23)NC(=O)[C@H](C(C)C)NC1=O [Peptide 17-ABP]	32	3.6 10^−3, s^−1	0.1 10^6, M^−1 · s^−1			21	21		
Ac-I[CVYQDWGAHRC]T-NH2 [Peptide 1, reference compound]								2400	1
